Patent US20240217957A1, “HETEROCYCLIC COMPOUND AND USE THEREOF” (TAKEDA PHARMACEUTICAL COMPANY LIMITED, priority 2022, published 2024)

Each molecule was assayed against T1, human OX2 receptor (Homo sapiens, UniProt O43614) (assay: Measurement of orexin type 2 receptor agonist activity (calcium fluorescence, Fluo-4 AM, FDSS)). Settings: compound at 3 μM; CHO cells forcibly expressing human OX2 receptor; DMSO = 0%, 10 nM orexin A (human) = 100%.
T1 construct: expressed in transfected cells
T1 sequence (O43614 1-444): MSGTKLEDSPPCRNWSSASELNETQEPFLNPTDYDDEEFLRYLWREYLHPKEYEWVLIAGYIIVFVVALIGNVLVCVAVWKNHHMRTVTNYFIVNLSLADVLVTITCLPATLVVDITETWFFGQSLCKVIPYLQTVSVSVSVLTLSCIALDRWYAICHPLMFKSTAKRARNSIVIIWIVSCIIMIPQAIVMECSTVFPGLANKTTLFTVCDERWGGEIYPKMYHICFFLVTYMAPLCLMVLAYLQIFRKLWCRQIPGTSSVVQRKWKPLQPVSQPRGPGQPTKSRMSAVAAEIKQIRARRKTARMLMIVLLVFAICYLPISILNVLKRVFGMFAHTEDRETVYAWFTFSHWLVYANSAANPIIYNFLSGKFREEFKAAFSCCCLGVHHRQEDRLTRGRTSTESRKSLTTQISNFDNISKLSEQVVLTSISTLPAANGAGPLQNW
Assay type: cell-based
In short: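 CHO-K1 cells stably expressing human OX2 receptor (residues 1-444) loaded with Fluo-4 AM in HBSS/20 mM HEPES/0.1% BSA with probenecid, 30 min at 37° C. then 30 min at room temperature. After compound addition, calcium fluorescence read for 1 min 40 s; activity (%) scaled to DMSO (0%) and 10 nM orexin A (100%).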

Compound | OX2R agonist activity (3 μM, %)
Cc1cnc([C@@H]2CC(N3C[C@H](F)[C@H](NS(=O)(=O)N(C)C)C3)=NO2)c(-c2c(F)cc(F)cc2F)c1 [Example 83, N′-[(3R,4S)-4-fluoro-1-{(5S)-5-[5-methyl-3-(2,4,6-trifluorophenyl)pyridin-2-yl]-4,5-dihydro-1,2-oxazol-3-yl}pyrrolidin-3-yl]-N,N-dimethylsulfuric diamide] | 103%
CS(=O)(=O)N[C@@H]1CN(C2=NOC(c3ncc(Cl)cc3-c3c(F)cc(F)cc3F)C2)C[C@@H]1F (stereo partly drawn) [Example 84, N-[(3R,4S)-1-{5-[5-chloro-3-(2,4,6-trifluorophenyl)pyridin-2-yl]-4,5-dihydro-1,2-oxazol-3-yl}-4-fluoropyrrolidin-3-yl]methanesulfonamide] | 97%
CS(=O)(=O)N[C@@H]1CN(C2=NOC(c3ncc(Br)cc3-c3c(F)cc(F)cc3F)C2)C[C@@H]1F (stereo partly drawn) [Example 85, N-[(3R,4S)-1-{5-[5-bromo-3-(2,4,6-trifluorophenyl)pyridin-2-yl]-4,5-dihydro-1,2-oxazol-3-yl}-4-fluoropyrrolidin-3-yl]methanesulfonamide] | 99%
Cc1cnc(C2(CF)CC(N3C[C@H](F)[C@H](NS(C)(=O)=O)C3)=NO2)c(-c2c(F)cccc2F)c1 (stereo partly drawn) [Example 86, N-[(3R,4S)-1-{5-[3-(2,6-difluorophenyl)-5-methylpyridin-2-yl]-5-(fluoromethyl)-4,5-dihydro-1,2-oxazol-3-yl}-4-fluoropyrrolidin-3-yl]methanesulfonamide] | 95%
CS(=O)(=O)N[C@H]1CCN(C2=NOC(CF)(c3ncc(F)cc3-c3c(F)cccc3F)C2)C1 (stereo partly drawn) [Example 87, N-[(3S)-1-{5-[3-(2,6-difluorophenyl)-5-fluoropyridin-2-yl]-5-(fluoromethyl)-4,5-dihydro-1,2-oxazol-3-yl}pyrrolidin-3-yl]methanesulfonamide] | 104%
CCS(=O)(=O)N[C@H]1CCN(C2=NOC(CF)(c3ncc(F)cc3-c3c(F)cccc3F)C2)C1 (stereo partly drawn) [Example 88, N-[(3S)-1-{5-[3-(2,6-difluorophenyl)-5-fluoropyridin-2-yl]-5-(fluoromethyl)-4,5-dihydro-1,2-oxazol-3-yl}pyrrolidin-3-yl]ethanesulfonamide] | 112%
O=S(=O)(N[C@H]1CCN(C2=NOC(CF)(c3ncc(F)cc3-c3c(F)cccc3F)C2)C1)C1(F)CC1 (stereo partly drawn) [Example 89, N-[(3S)-1-{5-[3-(2,6-difluorophenyl)-5-fluoropyridin-2-yl]-5-(fluoromethyl)-4,5-dihydro-1,2-oxazol-3-yl}pyrrolidin-3-yl]-1-fluorocyclopropane-1-sulfonamide] | 93%
CS(=O)(=O)N[C@@H]1CN(C2=NOC(c3ncc(F)cc3-c3c(F)cc(F)cc3F)C2)C[C@@H]1F (stereo partly drawn) [Example 90, N-[(3R,4S)-4-fluoro-1-{5-[5-fluoro-3-(2,4,6-trifluorophenyl)pyridin-2-yl]-4,5-dihydro-1,2-oxazol-3-yl}pyrrolidin-3-yl]methanesulfonamide] | 98%
COCS(=O)(=O)N[C@@H]1CN(C2=NO[C@H](c3ncc(C)cc3-c3c(F)cc(F)cc3F)C2)C[C@@H]1F [Example 91, N-[(3R,4S)-4-fluoro-1-{(5S)-5-[5-methyl-3-(2,4,6-trifluorophenyl)pyridin-2-yl]-4,5-dihydro-1,2-oxazol-3-yl}pyrrolidin-3-yl]-1-methoxymethanesulfonamide] | 98%
CCS(=O)(=O)N[C@@H]1CN(C2=NO[C@H](c3ncc(C)cc3-c3c(F)cc(F)cc3F)C2)C[C@@H]1F [Example 92, N-[(3R,4S)-4-fluoro-1-{(5S)-5-[5-methyl-3-(2,4,6-trifluorophenyl)pyridin-2-yl]-4,5-dihydro-1,2-oxazol-3-yl}pyrrolidin-3-yl]ethanesulfonamide] | 92%
Cc1cnc(C2(CF)CC(N3C[C@@H](NS(C)(=O)=O)C(F)(F)C3)=NO2)c(-c2c(F)cc(F)cc2F)c1 (stereo partly drawn) [Example 93, N-[(3R)-4,4-difluoro-1-{5-(fluoromethyl)-5-[5-methyl-3-(2,4,6-trifluorophenyl)pyridin-2-yl]-4,5-dihydro-1,2-oxazol-3-yl}pyrrolidin-3-yl]methanesulfonamide] | 99%
Cc1cnc(C2(C)CC(N3C[C@H](F)[C@H](NS(C)(=O)=O)C3)=NO2)c(-c2c(F)cccc2F)c1 (stereo partly drawn) [Example 96, N-[(3R,4S)-1-{5-[3-(2,6-difluorophenyl)-5-methylpyridin-2-yl]-5-methyl-4,5-dihydro-1,2-oxazol-3-yl}-4-fluoropyrrolidin-3-yl]methanesulfonamide] | 99%
Cc1cnc([C@@H]2CC(N3C[C@H](F)[C@H](NS(=O)(=O)C4CC4)C3)=NO2)c(-c2c(F)cc(F)cc2F)c1 [Example 97, N-[(3R,4S)-4-fluoro-1-{(5S)-5-[5-methyl-3-(2,4,6-trifluorophenyl)pyridin-2-yl]-4,5-dihydro-1,2-oxazol-3-yl}pyrrolidin-3-yl]cyclopropanesulfonamide] | 103%
O=S(=O)(N[C@@H]1CN(C2=NOC(c3ncc(Cl)cc3-c3c(F)cccc3F)C2)C[C@@H]1F)C1CC1 (stereo partly drawn) [Example 98, N-[(3R,4S)-1-{5-[5-chloro-3-(2,6-difluorophenyl)pyridin-2-yl]-4,5-dihydro-1,2-oxazol-3-yl}-4-fluoropyrrolidin-3-yl]cyclopropanesulfonamide] | 108%
Cc1cnc([C@@H]2CC(N3CC[C@H](NS(=O)(=O)C(C)F)C3)=NO2)c(-c2c(F)cccc2F)c1 (stereo partly drawn) [Example 99, N-[(3S)-1-{(5S)-5-[3-(2,6-difluorophenyl)-5-methylpyridin-2-yl]-4,5-dihydro-1,2-oxazol-3-yl}pyrrolidin-3-yl]-1-fluoroethane-1-sulfonamide] | 101%
Cc1cnc([C@@H]2CC(N3CC[C@H](NS(=O)(=O)C(C)F)C3)=NO2)c(-c2c(F)cc(F)cc2F)c1 (stereo partly drawn) [Example 100, 1-fluoro-N-[(3S)-1-{(5S)-5-[5-methyl-3-(2,4,6-trifluorophenyl)pyridin-2-yl]-4,5-dihydro-1,2-oxazol-3-yl}pyrrolidin-3-yl]ethane-1-sulfonamide] | 99%
O=S(=O)(CF)N[C@H]1CCN(C2=NOC(c3ncc(Cl)cc3-c3c(F)cccc3F)C2)C1 (stereo partly drawn) [Example 101, N-[(3S)-1-{5-[5-chloro-3-(2,6-difluorophenyl)pyridin-2-yl]-4,5-dihydro-1,2-oxazol-3-yl}pyrrolidin-3-yl]-1-fluoromethanesulfonamide] | 98%
O=S(=O)(CF)N[C@H]1CCN(C2=NOC(c3ncc(Br)cc3-c3c(F)cccc3F)C2)C1 (stereo partly drawn) [Example 102, N-[(3S)-1-{5-[5-bromo-3-(2,6-difluorophenyl)pyridin-2-yl]-4,5-dihydro-1,2-oxazol-3-yl}pyrrolidin-3-yl]-1-fluoromethanesulfonamide] | 95%
CS(=O)(=O)N[C@@H]1CN(C2=NOC(c3ncc(Cl)cc3-c3c(F)cccc3F)C2)C[C@@H]1F (stereo partly drawn) [Example 103, N-[(3R,4S)-1-{5-[5-chloro-3-(2,6-difluorophenyl)pyridin-2-yl]-4,5-dihydro-1,2-oxazol-3-yl}-4-fluoropyrrolidin-3-yl]methanesulfonamide] | 96%
Cc1cnc(C2(CF)CC(N3C[C@@H](NS(C)(=O)=O)C(F)(F)C3)=NO2)c(-c2c(F)cccc2F)n1 (stereo partly drawn) [Example 104, N-[(3R)-1-{5-[3-(2,6-difluorophenyl)-5-methylpyrazin-2-yl]-5-(fluoromethyl)-4,5-dihydro-1,2-oxazol-3-yl}-4,4-difluoropyrrolidin-3-yl]methanesulfonamide] | 102%
Cc1cnc(C2(CF)CC(N3C[C@H](F)[C@H](NS(C)(=O)=O)C3)=NO2)c(-c2c(F)cccc2F)n1 (stereo partly drawn) [Example 105, N-[(3R,4S)-1-{5-[3-(2,6-difluorophenyl)-5-methylpyrazin-2-yl]-5-(fluoromethyl)-4,5-dihydro-1,2-oxazol-3-yl}-4-fluoropyrrolidin-3-yl]methanesulfonamide] | 97%
Cc1ccc(C2CC(N3C[C@@H](NS(C)(=O)=O)C(F)(F)C3)=NO2)c(-c2ncc(F)cc2F)c1 (stereo partly drawn) [Example 106, N-[(3R)-1-{5-[2-(3,5-difluoropyridin-2-yl)-4-methylphenyl]-4,5-dihydro-1,2-oxazol-3-yl}-4,4-difluoropyrrolidin-3-yl]methanesulfonamide] | 108%
Cc1cnc(C2(CF)CC(N3C[C@@H](NS(C)(=O)=O)C(F)(F)C3)=NO2)c(-c2c(F)cccc2F)c1 (stereo partly drawn) [Example 108, N-[(3R)-1-{5-[3-(2,6-difluorophenyl)-5-methylpyridin-2-yl]-5-(fluoromethyl)-4,5-dihydro-1,2-oxazol-3-yl}-4,4-difluoropyrrolidin-3-yl]methanesulfonamide] | 105%
Cc1cnc(C2(CF)CC(N3C[C@H](F)[C@H](NS(C)(=O)=O)C3)=NO2)c(-c2c(F)cc(F)cc2F)c1 (stereo partly drawn) [Example 110, N-[(3R,4S)-4-fluoro-1-{5-(fluoromethyl)-5-[5-methyl-3-(2,4,6-trifluorophenyl)pyridin-2-yl]-4,5-dihydro-1,2-oxazol-3-yl}pyrrolidin-3-yl]methanesulfonamide] | 100%
